Assay results reported in publication PMC6753678, “Fueling Open Innovation for Malaria Transmission-Blocking Drugs: Hundreds of Molecules Targeting Early Parasite Mosquito Stages” (Frontiers in Microbiology, 2019).
Where two headings read alike, the source gives them in different places.

Legend:
HepG2 cells [1] = experiment: HepG2 cytotoxicity assay; conditions: for IC50: read-out: HepG2 cytotoxicity assay IC50, dose response confirmation
Method in brief: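 Percent inhibition derived from fluorescent viability readout, normalised to DMSO (negative) and 50 μM doxorubicin (positive). Compound incubation lasted 48 h at 37°C, 5% CO2, with 2,500 HepG2 cells/well in MEM plus 10% FBS and 1% NEAA.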

[2] = system: P. falciparum late stage (stages IV-V) gametocytes; parameters: method as in Almela et al 2016; conditions: ref Almela et al 2016, read-out: Pf GCT ATP IC50, cited from earlier work
[3] = system: P. falciparum late stage (stages IV-V) gametocytes; experiment: P. falciparum late stage gametocyte ATP depletion assay (Pf GC-ATP); conditions: 1: YES; 0: NO; >10-fold selectivity over cytotoxicity
HepG2 cells [4] = conditions: cited from earlier work; for HepG2 cytoxicity (Pf GCT ATP screen) / HepG2 cytoxicity: ref Almela et al 2016; for HepG2 cytoxicity (Pf FGAA screen): ref Miguel-Blanco et al 2017
[5] = system: P. berghei ookinete development; conditions: for % inhibition, Replicate A / % inhibition, Replicate B: primary screen at 1 μM; for Is compound selective in assay? Pb ODA active?: 1: YES, 0: NO
[6] = system: 3D7-strain P. falciparum asexual parasites; experiment: P. falciparum asexual growth inhibition assay (Pf GIA); format: cell-based, Plasmodium falciparum; conditions: dose response confirmation; read-out: Pf asexual growth inhibition assays IC50
Method in brief: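 Steps: seed parasites (0.25% parasitemia, 2% hematocrit) onto compound dilutions; incubate 72 h at 37°C, 5% O2/5% CO2; freeze at −70°C and thaw; add LDH reaction mix, read A650 after 10 min. Percent growth inhibition derived from chloroquine and DMSO controls, averaged over three biological replicates.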

[7] = system: P. falciparum female gametocytes; parameters: method as in Miguel-Blanco et al 2017; conditions: ref Miguel-Blanco et al 2017, read-out: Pf FGAA IC50, cited from earlier work
[8] = system: P. falciparum female gametocytes; experiment: P. falciparum female gametogenesis assay (Pf FGAA); conditions: 1: YES; 0: NO
[9] = HepG2 cytotoxicity unified across screens, >25 set to 25.00
[10] = P. falciparum late stage gametocyte ATP assay, TCAMS screen
[11] = read-out: Pb ODA IC50, this manuscript
[12] = read-out: Pb Ookinete development assay IC50, dose response confirmation
[13] = HepG2 data listed with Pf GCT ATP screen
[14] = P. falciparum late stage gametocyte ATP assay
[15] = reported with the Pf GCT ATP screen
[16] = HepG2 values of the three screens unified

CN(C)CCCn1c(N)c(-c2nc3ccccc3[nH]2)c2nc(C#N)c(C#N)nc21 [TCMDC-123729]
Unified cytotox (HepG2 cells [1]; [9]): 6.93 µM | IC50 [2, 10]: 0.2 µM | Is compound selective in assay? Pf GC-ATP active? [3]: 1 (1: YES)

c1ccc(CSC2=NNC(c3ccccn3)S2)cc1 (stereo not drawn) [TCMDC-123769]
HepG2 cytoxicity (Pf GCT ATP screen) (HepG2 cells [4]; HepG2 value reported with Pf GCT ATP screen): >25 µM | IC50 ([2]; TCAMS library screen): 7.98 µM

Clc1ccc(Nc2nc(-c3ccccn3)cs2)nc1 [TCMDC-123885]
HepG2 cytoxicity (Pf GCT ATP screen) (HepG2 cells [4]; HepG2): 20.8 µM | % inhibition, Replicate A [5]: -3.14% | % inhibition, Replicate B [5]: 71.58% | IC50 [5, 11]: 3.7 µM | IC50 [5, 12]: 3.7 µM | IC50 [6]: 1.6 µM | IC50 [2]: 0.67 µM

O=C(Nc1ccc2c(c1)CCCN2S(=O)(=O)c1cccs1)c1cc([N+](=O)[O-])ccc1Cl [TCMDC-125153]
HepG2 cytoxicity (HepG2 cells [4]; [13]): >25 µM | IC50 [2, 14]: 2.66 µM

Cc1cc(NCCCCCCNc2cc(C)nc3c(C)cccc23)c2cccc(C)c2n1.Cl [TCMDC-125702]
HepG2 cytoxicity (HepG2 cells [4]; [13]): >25 µM | IC50 [2, 14]: 3.32 µM

Br.Cc1ccnc(Nc2nc(-c3ccccn3)cs2)c1 [TCMDC-125769]
IC50 [2, 14]: 0.0433 µM

Cc1ccc(Nc2nc(-c3ccccn3)cs2)nc1 [TCMDC-125854]
Unified cytotox (HepG2 cells [1]; HepG2 cytotoxicity unified across the three screens): 33.07 µM | IC50 ([7]; TCAMS screen comparison): 0.0273 µM | IC50 ([2]; TCAMS screen comparison): 0.16 µM

CCN(CC)/C(=N/C(=N)Nc1ccc(Cl)c(Cl)c1)NCCCCCCN/C(=N\C(=N)Nc1ccc(Cl)c(Cl)c1)N(CC)CC [TCMDC-131808]
HepG2 cytoxicity (HepG2 cells [4]; [13]): >25 µM | IC50 [2, 14]: 3.44 µM

CCC1=C(C[C@H]2NCCc3cc(OC)c(OC)cc32)C[C@H]2c3cc(OC)c(OC)cc3CCN2C1.Cl [TCMDC-131825]
HepG2 cytoxicity (Pf GCT ATP screen) (HepG2 cells [4]; HepG2): >25 µM | % inhibition, Replicate A [5]: 90.26% | % inhibition, Replicate B [5]: 99.18% | IC50 [5, 11]: 0.37 µM | IC50 [5, 12]: 0.367 µM | IC50 [6]: 0.127 µM | IC50 [2]: 0.3 µM

Nc1c2ccccc2nc2ccc(-c3ccccc3)cc12 [TCMDC-132030]
Unified cytotox (HepG2 cells [1]; [9]): 3.30 µM | IC50 [2, 10]: 0.49 µM | Is compound selective in assay? Pf GC-ATP active? [3]: 0 (0: NO)

CCc1c(CCNCCCCCCNCCc2ccc(Br)cc2)ccc(OC)c1OC.Cl [TCMDC-132045]
Unified cytotox (HepG2 cells [1]; [9]): 3.20 µM | IC50 [2, 10]: 0.22 µM | Is compound selective in assay? Pf GC-ATP active? [3]: 1 (1: YES)

CCc1c(CCNCCCCCCNCCc2ccc(OC)c(OC)c2C)ccc(OC)c1OC.Cl [TCMDC-132051]
Unified cytotox (HepG2 cells [1]; [9]): 7.75 µM | IC50 [2, 10]: 0.77 µM | Is compound selective in assay? Pf GC-ATP active? [3]: 1 (1: YES)

CCc1c(CCNCCc2cccc(CCNCCc3ccc(OC)c(OC)c3CC)c2)ccc(OC)c1OC.Cl [TCMDC-132056]
Unified cytotox (HepG2 cells [1]; [9]): 4.11 µM | IC50 [2, 10]: 0.55 µM | Is compound selective in assay? Pf GC-ATP active? [3]: 0 (0: NO)

CCc1c(CCNCCCC(C)CCNCCc2ccc(OC)c(OC)c2CC)ccc(OC)c1OC.Cl (stereo not drawn) [TCMDC-132065]
Unified cytotox (HepG2 cells [1]; [9]): 6.00 µM | IC50 [2, 10]: 0.45 µM | Is compound selective in assay? Pf GC-ATP active? [3]: 1 (1: YES)

COc1cccc(CCc2c(CCNCCCCCCNCCc3ccccc3)ccc(OC)c2OC)c1.Cl [TCMDC-132105]
Unified cytotox (HepG2 cells [1]; [9]): 7.70 µM | IC50 [2, 10]: 0.18 µM | Is compound selective in assay? Pf GC-ATP active? [3]: 1 (1: YES)

Cc1cc(-c2cccc(CNC3CCCC3)c2)ccc1S(=O)(=O)NCCN1CCCC1.O=C(O)C(F)(F)F [TCMDC-132279]
Unified cytotox (HepG2 cells [1]; [9]): 7.50 µM | IC50 [2, 10]: 1.24 µM | Is compound selective in assay? Pf GC-ATP active? [3]: 0 (0: NO)

O=C(O)C(F)(F)F.O=S(=O)(NCCN1CCCC1)c1cccc(-c2ccc(CNCc3ccc(F)cc3)cc2)c1 [TCMDC-132289]
Unified cytotox (HepG2 cells [1]; [9]): 7.40 µM | IC50 [2, 10]: 2.69 µM | Is compound selective in assay? Pf GC-ATP active? [3]: 0 (0: NO)

COc1ccc(CNCc2ccc(F)cc2)cc1-c1ccc(S(=O)(=O)NCCN2CCCC2)cc1.O=C(O)C(F)(F)F [TCMDC-132294]
Unified cytotox (HepG2 cells [1]; [9]): 6.50 µM | IC50 [2, 10]: 1.21 µM | Is compound selective in assay? Pf GC-ATP active? [3]: 0 (0: NO)

COc1ccc(CNCc2ccc(F)cc2)cc1-c1ccc(OC)c(S(=O)(=O)NCCN2CCCC2)c1.O=C(O)C(F)(F)F [TCMDC-132295]
Unified cytotox (HepG2 cells [1]; [9]): 11.40 µM | IC50 [2, 10]: 0.72 µM | Is compound selective in assay? Pf GC-ATP active? [3]: 1 (1: YES)

COc1ccc(CNCCc2cccs2)cc1-c1cccc(S(=O)(=O)NCCN2CCCC2)c1.O=C(O)C(F)(F)F [TCMDC-132479]
Unified cytotox (HepG2 cells [1]; [9]): 11.40 µM | IC50 [2, 10]: 1.68 µM | Is compound selective in assay? Pf GC-ATP active? [3]: 0 (0: NO)

O=C(Nc1ccc(N2CCNCC2)cc1)c1ccn2ncc(-c3cccc(Cl)c3)c2n1 [TCMDC-132663]
Unified cytotox (HepG2 cells [1]; [9]): 22.22 µM | IC50 [2, 10]: 3.5 µM | Is compound selective in assay? Pf GC-ATP active? [3]: 0 (0: NO)

NCc1ccc(CNCc2cccc(-c3ccc(-c4nc5ccccc5[nH]4)cc3)c2)cc1.O=C(O)C(F)(F)F [TCMDC-132815]
Unified cytotox (HepG2 cells [1]; [9]): 21.82 µM | IC50 [2, 10]: 0.48 µM | Is compound selective in assay? Pf GC-ATP active? [3]: 1 (1: YES)

O=C(O)C(F)(F)F.c1cc(CNCCN2CCNCC2)cc(-c2cccc(-c3nc4ccccc4[nH]3)c2)c1 [TCMDC-132859]
Unified cytotox (HepG2 cells [1]; [9]): 19.30 µM | IC50 [2, 10]: 0.71 µM | Is compound selective in assay? Pf GC-ATP active? [3]: 1 (1: YES)

COc1ccc(-c2cc(-c3ccc(S(C)(=O)=O)cc3)cnc2N)cn1 [TCMDC-133351]
IC50 [2, 10]: 1.18 µM

Nc1ncc(-c2ccc3nccc(-c4ccncc4)c3c2)cc1S(=O)(=O)N1CCOCC1 [TCMDC-134180]
HepG2 cytoxicity (HepG2 cells [4]; [15]): >25 µM | Unified cytotox (HepG2 cells [1]; [9]): 25.00 µM | IC50 [2, 10]: 6.9 µM

COc1ccc2nc(-c3cccc(C)n3)nc(Nc3ccncc3)c2c1 [TCMDC-134670]
HepG2 cytoxicity (HepG2 cells [4]; [15]): >25 µM | Unified cytotox (HepG2 cells [1]; [9]): 25.00 µM | IC50 [2, 10]: 2.51 µM

Cc1cccc(-c2nc(Nc3ccncc3)c3cc(N(C)C)ccc3n2)n1 [TCMDC-135308]
HepG2 cytoxicity (HepG2 cells [4]; [15]): >25 µM | Unified cytotox (HepG2 cells [1]; [9]): 25.00 µM | IC50 [2, 10]: 2.66 µM

O=C(Nc1ccc(Cl)cc1)c1cc(Cl)cc2nc(C(F)(F)F)[nH]c12 [TCMDC-141586]
HepG2 cytoxicity (Pf FGAA screen) (HepG2 cells [4]; HepG2): 2.82 µM | HepG2 cytoxicity (Pb ODA, this manuscript) (HepG2 cells [1]): 2.04 µM | Unified cytotox (HepG2 cells [1]; [16]): 2.43 µM | IC50 (HepG2 cells [1]): 2.04 µM | IC50 [7]: 1.7 µM | Is compound selective in assay? Pf FGAA active? [8]: 0 (0: NO) | Is compound selective in assay? Pb ODA active? [5]: 0 (0: NO) | % inhibition, Replicate A [5]: 65.74% | % inhibition, Replicate B [5]: 42.68% | IC50 [5, 11]: 4.37 µM | IC50 [5, 12]: 4.37 µM | IC50 [6]: 1.1 µM

Cc1cc(F)ccc1-c1nc(NCCCNCCc2ccccc2)nc2c1ccc(=O)n2-c1c(F)cccc1F.O=C(O)C(F)(F)F [TCMDC-141804]
HepG2 cytoxicity (Pf FGAA screen) (HepG2 cells [4]; HepG2): 12.59 µM | HepG2 cytoxicity (Pb ODA, this manuscript) (HepG2 cells [1]): 11.48 µM | Unified cytotox (HepG2 cells [1]; [16]): 12.04 µM | IC50 (HepG2 cells [1]): 11.5 µM | IC50 [7]: 3.61 µM | Is compound selective in assay? Pf FGAA active? [8]: 0 (0: NO) | Is compound selective in assay? Pb ODA active? [5]: 1 (1: YES) | % inhibition, Replicate A [5]: 63.85% | % inhibition, Replicate B [5]: 85.47% | IC50 [5, 11]: 0.72 µM | IC50 [5, 12]: 0.725 µM | IC50 [6]: 0.021 µM
